# Like-named read-outs stand apart in the source and are kept apart here.
# Legend:
# [1] = test system: WT P. aeruginosa PAO1; assay: Checkerboard combination study / MIC; type: cell-based, Pseudomonas aeruginosa; conditions: for MIC of antibiotic + Compound 2 in PAO1: + compound 2 ≤8.7 μM; for MIC: Pseudomonas aeruginosa; for FICI in the presence of ≤10 μM of 1: antibiotic + compound 1; for FICI in the presence of ≤10 μM of 1 / MIC of Antibiotics in the presence of ≤10 μM of 1 / FICI in the presence of ≤10 μM of 2 / MIC of Antibiotics in the presence of ≤10 μM of 2 / FICI in the presence of ≤10 μM of 3 / MIC of Antibiotics in the presence of ≤10 μM of 3: WT PAO1; for MIC of Antibiotics in the presence of ≤10 μM of 1: antibiotic + compound 1 ≤10 μM; for FICI in the presence of ≤10 μM of 2: antibiotic + compound 2; for MIC of Antibiotics in the presence of ≤10 μM of 2: antibiotic + compound 2 ≤10 μM; for FICI in the presence of ≤10 μM of 3: antibiotic + compound 3; for MIC of Antibiotics in the presence of ≤10 μM of 3: antibiotic + compound 3 ≤10 μM; for MIC of antibiotic alone in PAO1: PAO1 wild-type (Table 4)
# [2] = test system: PA 100036; assay: Checkerboard combination study / MIC; type: cell-based, Pseudomonas aeruginosa; conditions: for MICCombination (antibiotic): MIC of antibiotic combined with compound 2; for FICI: antibiotic + compound 2; for MICAntibiotic: antibiotic alone
# [3] = test system: PA 101885; assay: Checkerboard combination study / MIC; type: cell-based, Pseudomonas aeruginosa; conditions: for MICCombination (antibiotic): MIC of antibiotic combined with compound 2; for FICI: antibiotic + compound 2; for MICAntibiotic: antibiotic alone
# [4] = test system: PA 259; assay: Checkerboard combination study / MIC; type: cell-based, Pseudomonas aeruginosa; conditions: for MICCombination (antibiotic): MIC of antibiotic combined with compound 2; for FICI: antibiotic + compound 2; for MICAntibiotic: antibiotic alone
# [5] = test system: PA 260; assay: Checkerboard combination study / MIC; type: cell-based, Pseudomonas aeruginosa; conditions: for MICCombination (antibiotic): MIC of antibiotic combined with compound 2; for FICI: antibiotic + compound 2; for MICAntibiotic: antibiotic alone
# [6] = test system: PA 264; assay: Checkerboard combination study / MIC; type: cell-based, Pseudomonas aeruginosa; conditions: for MICCombination (antibiotic): MIC of antibiotic combined with compound 2; for FICI: antibiotic + compound 2; for MICAntibiotic: antibiotic alone; for FICAntibiotic: with compound 2
# [7] = test system: PA 91433; assay: Checkerboard combination study / MIC; type: cell-based, Pseudomonas aeruginosa; conditions: PA 91433; for MICCombination (antibiotic): MIC of antibiotic combined with compound 2; for FICI: antibiotic + compound 2; for MICAntibiotic: antibiotic alone; for FICAntibiotic: with compound 2
# [8] = test system: PA 101243; assay: Checkerboard combination study / MIC; type: cell-based, Pseudomonas aeruginosa; conditions: PA 101243; for MICCombination (antibiotic): MIC of antibiotic combined with compound 2; for FICI: antibiotic + compound 2; for MICAntibiotic: antibiotic alone
# [9] = test system: PAO200; type: cell-based, Pseudomonas aeruginosa; conditions: for MIC of antibiotic alone in PAO200: PAO200 efflux-deficient
# Description: (§1) PAO200 is a tnexA-rnexB-oprM deletion strain while PAO750 lacks five important RND pumps (McxAB-OprM, MexCD-OprJ, MexEF-OprN, Mex JK, and MexXY) and the outer membrane protein OpmH (46, 47). Some of these pumps are homologues of broad substrate specificities that extrude different classes of antimicrobial agents and confer resistance on P. aeruginosa (48).
# (§2) Antimicrobial Susceptibility Assay. The in vitro antimicrobial activity of all compounds/antibiotics against a panel of bacteria was evaluated by microbroth dilution method in accordance with the Clinical and Laboratory Standards Institute (CLSI) guidelines. Overnight grown bacterial cultures were diluted in saline to achieve a 0.5 McFarland turbidity, followed by 1:50 dilution in Mueller-Hinton broth (MHB) for inoculation to a final concentration of approximately 5×10^5CFU/mL. The antimicrobial agents were 2-fold serially diluted in MHB in a 96-well plate and incubated at 37° C. with equal volumes of inoculum for 18 h. The lowest concentration that prevented the visible growth of bacteria was defined as the MIC for each antimicrobial agent. The broth with or without bacterial cells was used as positive or negative control, respectively.
# (§3) Checkerboard Assay. Combination studies with different antibiotics were performed in 96-well plates as previously described (22). Briefly, the antibiotic of interest was serially diluted in MHB along the abscissa while the adjuvant (newly synthesized conjugates) was serially diluted in MHB along the ordinate. This creates a 10×7 matrix wherein each well consists of a combination of different antibiotic and adjuvant concentrations. Overnight grown bacterial cultures were diluted in saline to achieve a 0.5 McFarland turbidity, followed by 1:50 dilution in Mueller-Hinton broth (MHB) for inoculation to a final concentration of approximately 5×10^5CFU/mL. Equal volume of this bacterial culture was then added to each well and incubated at 37° C. for 18 h. After incubation, the plates were read on EMax® Plus microplate reader (Molecular Devices, Sunnyvale, Calif., USA) at 590 nm. MIC was recorded as wells with the lowest concentration of drugs with no bacterial growth. The fractional inhibitory concentration (FIC) for each antibiotic was calculated by dividing the MIC of the antibiotic in the presence of adjuvant by the MIC of the antibiotic alone. Similarly, the FIC of adjuvant was calculated by dividing the MIC of the adjuvant in the presence of antibiotic by the MIC of the adjuvant alone. FIC index is the sum of both FICs. FIC indices of <0.5 were deemed synergistic; 0.5-4, no interaction; and >4, antagonistic.
# [10] = test system: PAO750; type: cell-based, Pseudomonas aeruginosa; conditions: for MIC of antibiotic alone in PAO750: PAO750 efflux-deficient
# Description: as §1, §2, §3
# [11] = test system: MDR/XDR P. aeruginosa clinical isolates; assay: MIC and checkerboard, panel of clinical isolates; type: cell-based, Pseudomonas aeruginosa; conditions: antibiotic + compound 2 (8.7 μM); resistant P. aeruginosa isolates
# [12] = test system: MDR PA101885-challenged larvae; assay: Galleria mellonella infection model, efficacy; type: in vivo; conditions: aztreonam 25 mg/kg single dose; after 24 h
# Description: In vivo synergistic effects were determined using Galleria mellonella infection model, as previously described (20). Briefly, worms were purchased from The Worm Lady® Live Feeder (ON, Canada), stored in their natural habitat at 16° C., and used within 10 days of delivery. The worms (average weight of 250 mg) were used for tolerability and efficacy studies. Tolerability study was performed by injecting 10 μL of antimicrobial agents only at concentrations equivalent to 100 mg/kg or 200 mg/kg. The worms (ten in each group) were incubated at 37° C. and monitored for 96 h. For efficacy studies, the virulence and bacterial load required to kill 100% of the worms within 12-18 h (with no treatment) was first determined, which is approximately 5 CFU. Overnight grown culture of respective MDR P. aeruginosa isolate was standardized to 0.5 McFarland standard and diluted in PBS to a final concentration of 5×10^2CFU/mL. 10 μL of this solution (5 CFU) was injected into each worm and incubated for 3 h at 37° C. […] Worms treated with 10 μL PBS or high concentrations of test antibiotics served as negative and positive control, respectively. The worms were incubated at 37° C. in Petri dishes lined with filter paper and scored for survivability every 6 h for up to 48 h. This experiment was repeated to give a total of thirty worms (n=30) in each case. Survival data curves were plotted using Kaplan-Meier survival analysis.
# [13] = test system: PA 262; assay: Checkerboard combination study / MIC; type: cell-based, Pseudomonas aeruginosa
# [14] = test system: PA 114228; assay: Checkerboard combination study / MIC; type: cell-based, Pseudomonas aeruginosa
# [15] = MIC of antibiotic combined with compound 2
structure (smiles),measurement,setting,value
C[C@H]1[C@H](NC(=O)/C(=N\OC(C)(C)C(=O)O)c2csc(N)n2)C(=O)N1S(=O)(=O)O [Aztreonam],MIC of antibiotic + Compound 2 in PAO1,[1],0.25 µg/mL
same,MIC,"[1]; PAO1, 18 h, antibiotic alone, WT PAO1 (Table 2), read-out: MIC alone",4 µg/mL
same,MIC,"[1]; PAO1, FIG. 7 legend, read-out: MIC against WT PAO1",0.004 µg/mL
same,MIC,"[1]; PAO1, time-kill study text and FIG. 7 legend, read-out: MIC against WT PAO1",4 µg/mL
same,FICI in the presence of ≤10 μM of 1,[1],0.13
same,MIC of Antibiotics in the presence of ≤10 μM of 1,[1],0.5 µg/mL
same,FICI in the presence of ≤10 μM of 2,[1],0.07
same,MIC of Antibiotics in the presence of ≤10 μM of 2,[1],0.25 µg/mL
same,FICI in the presence of ≤10 μM of 3,[1],0.14
same,MIC of Antibiotics in the presence of ≤10 μM of 3,[1],0.5 µg/mL
same,MIC of antibiotic alone in PAO1,[1]; antibiotic alone,4 µg/mL
same,MICCombination (antibiotic),[2],2 µg/mL
same,FICI,[2],<0.16
same,MICAntibiotic,[2],16 µg/mL
same,MICCombination (antibiotic),[3],0.5 µg/mL
same,FICI,[3],<0.09
same,MICAntibiotic,[3],16 µg/mL
same,FICAntibiotic,[3]; with compound 2,0.031
same,MICCombination (antibiotic),[4],4 µg/mL
same,FICI,[4],<0.19
same,MICAntibiotic,[4],32 µg/mL
same,MICCombination (antibiotic),[5],8 µg/mL
same,FICI,[5],<0.19
same,MICAntibiotic,[5],64 µg/mL
same,MICCombination (antibiotic),[6],16 µg/mL
same,FICI,[6],<0.28
same,MICAntibiotic,[6],64 µg/mL
same,FICAntibiotic,[6],0.250
same,MICCombination (antibiotic),[7],512 µg/mL
same,FICI,[7],<1.06
same,MICAntibiotic,[7],512 µg/mL
same,FICAntibiotic,[7],1.000
same,MICCombination (antibiotic),[8],8 µg/mL
same,FICI,[8],<0.26
same,MICAntibiotic,[8],32 µg/mL
same,FICAntibiotic,[8]; with compound 2,0.250
same,MIC of antibiotic + Compound 2 in PAO200,"[9]; + compound 2 ≤8.7 μM, PAO200",0.016 µg/mL
same,MIC of antibiotic alone in PAO200,[9],0.25 µg/mL
same,MIC of antibiotic + Compound 2 in PAO750,"[10]; + compound 2 ≤8.7 μM, PAO750",0.031 µg/mL
same,MIC of antibiotic alone in PAO750,[10],0.5 µg/mL
same,resistant isolates reaching CLSI clinical breakpoint,[11],seven out of nine
same,survival of larvae,[12],50%
CC(C)(O/N=C(\C(=O)N[C@@H]1C(=O)N2C(C(=O)[O-])=C(C[n+]3ccccc3)CS[C@H]12)c1csc(N)n1)C(=O)O [Ceftazidime],MIC of antibiotic + Compound 2 in PAO1,[1],0.5 µg/mL
same,MIC,"[1]; PAO1, antibiotic alone, WT PAO1 (Table 2), read-out: MIC alone",2 µg/mL
same,FICI in the presence of ≤10 μM of 1,[1],0.25
same,MIC of Antibiotics in the presence of ≤10 μM of 1,[1],0.5 µg/mL
same,FICI in the presence of ≤10 μM of 2,[1],0.13
same,MIC of Antibiotics in the presence of ≤10 μM of 2,[1],0.25 µg/mL
same,FICI in the presence of ≤10 μM of 3,[1],0.25
same,MIC of Antibiotics in the presence of ≤10 μM of 3,[1],0.5 µg/mL
same,MIC of antibiotic alone in PAO1,[1]; antibiotic alone,4 µg/mL
same,MICCombination (antibiotic),[2],2 µg/mL
same,FICI,[2],<0.28
same,MICAntibiotic,[2],8 µg/mL
same,FICAntibiotic,[2]; with compound 2,0.250
same,MICCombination (antibiotic),[3],1 µg/mL
same,FICI,[3],<0.16
same,MICAntibiotic,[3],8 µg/mL
same,MICCombination (antibiotic),[4],64 µg/mL
same,FICI,[4],<0.19
same,MICAntibiotic,[4],512 µg/mL
same,MICCombination (antibiotic),[5],16 µg/mL
same,FICI,[5],<0.52
same,MICAntibiotic,[5],32 µg/mL
same,FICAntibiotic,[5]; with compound 2,0.500
same,MICCombination (antibiotic),[13]; [15],4 µg/mL
same,FICI,[13]; antibiotic + compound 2,<0.31
same,MICAntibiotic,[13]; antibiotic alone,16 µg/mL
same,FICAntibiotic,[13]; with compound 2,0.250
same,MICCombination (antibiotic),[6],32 µg/mL
same,FICI,[6],<0.28
same,MICAntibiotic,[6],128 µg/mL
same,FICAntibiotic,[6],0.250
same,MICCombination (antibiotic),[7],512 µg/mL
same,FICI,[7],<0.50
same,MICAntibiotic,[7],1024 µg/mL
same,FICAntibiotic,[7],0.500
same,MICCombination (antibiotic),[8],8 µg/mL
same,FICI,[8],<0.13
same,MICAntibiotic,[8],64 µg/mL
same,MICCombination (antibiotic),[14]; [15],1 µg/mL
same,FICI,[14]; antibiotic + compound 2,<0.19
same,MICAntibiotic,[14]; antibiotic alone,8 µg/mL
same,MIC of antibiotic alone in PAO200,[9],2 µg/mL
same,MIC of antibiotic alone in PAO750,[10],1 µg/mL
same,resistant isolates reaching CLSI clinical breakpoint,[11],three out of six
